From ChEMBL document CHEMBL4406811, “Optimization and Mechanistic Characterization of Pyridopyrimidine Inhibitors of Bacterial Biotin Carboxylase” (J Med Chem, 2019)

Experiments:
INSR = INSR (Homo sapiens, UniProt P06213); assay: Inhibition of recombinant human GST-tagged INSR cytoplasmic domain (1011 to 1382 residues) expressed in baculovirus expression system at 25 uM using FRET-labeled Tyr 01 peptide as substrate measured after 1 hr by Z'-lyte assay relative to control; conditions: probe FRET-labeled Tyr 01 peptide
ABL1 = ABL1 (Homo sapiens, UniProt P00519); assay: Inhibition of full-length recombinant human His-tagged ABL1 cytoplasmic domain expressed in baculovirus expression system at 25 uM using FRET-labeled tyr 02 peptide as substrate measured after 1 hr by Z'-lyte assay relative to control; conditions: probe FRET-labeled tyr 02 peptide
ABL1, sequence (P00519 whole entry, the tested form may be a part): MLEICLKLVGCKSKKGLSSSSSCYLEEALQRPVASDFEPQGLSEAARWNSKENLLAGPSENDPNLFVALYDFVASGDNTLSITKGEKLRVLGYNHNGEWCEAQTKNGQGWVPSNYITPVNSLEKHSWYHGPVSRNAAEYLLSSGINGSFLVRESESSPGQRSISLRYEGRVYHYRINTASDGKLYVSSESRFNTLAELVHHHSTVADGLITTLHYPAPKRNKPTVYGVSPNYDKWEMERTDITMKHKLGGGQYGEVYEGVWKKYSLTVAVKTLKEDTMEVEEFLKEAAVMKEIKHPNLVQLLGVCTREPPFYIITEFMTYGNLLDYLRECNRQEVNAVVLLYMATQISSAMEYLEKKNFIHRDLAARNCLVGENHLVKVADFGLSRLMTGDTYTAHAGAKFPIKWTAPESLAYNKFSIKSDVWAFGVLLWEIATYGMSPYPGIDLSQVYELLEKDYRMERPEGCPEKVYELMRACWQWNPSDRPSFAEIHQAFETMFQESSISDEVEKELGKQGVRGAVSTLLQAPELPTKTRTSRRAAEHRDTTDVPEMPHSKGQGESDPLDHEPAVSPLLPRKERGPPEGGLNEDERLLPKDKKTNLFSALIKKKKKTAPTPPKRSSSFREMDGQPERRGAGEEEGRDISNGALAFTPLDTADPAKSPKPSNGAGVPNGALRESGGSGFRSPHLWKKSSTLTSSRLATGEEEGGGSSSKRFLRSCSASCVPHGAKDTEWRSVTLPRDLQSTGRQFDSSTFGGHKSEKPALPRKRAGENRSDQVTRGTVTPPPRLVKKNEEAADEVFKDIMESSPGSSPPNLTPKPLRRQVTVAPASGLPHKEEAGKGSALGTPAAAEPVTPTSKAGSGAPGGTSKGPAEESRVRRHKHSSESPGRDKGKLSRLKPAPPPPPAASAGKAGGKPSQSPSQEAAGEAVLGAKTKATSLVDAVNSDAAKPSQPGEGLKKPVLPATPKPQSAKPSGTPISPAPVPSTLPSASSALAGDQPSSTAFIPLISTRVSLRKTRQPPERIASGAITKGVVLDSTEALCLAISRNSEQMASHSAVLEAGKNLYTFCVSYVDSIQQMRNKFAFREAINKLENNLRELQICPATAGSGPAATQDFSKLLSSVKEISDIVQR

GSK3B = GSK3B (Homo sapiens, UniProt P49841); assay: Inhibition of recombinant human full-length His-tagged GSK3B expressed in baculovirus expression system at 25 uM using FRET-labeled Ser/Thr 09 peptide as substrate measured after 1 hr by Z'-lyte assay relative to control; conditions: probe FRET-labeled Ser/Thr 09 peptide
GSK3B, sequence (P49841 whole entry): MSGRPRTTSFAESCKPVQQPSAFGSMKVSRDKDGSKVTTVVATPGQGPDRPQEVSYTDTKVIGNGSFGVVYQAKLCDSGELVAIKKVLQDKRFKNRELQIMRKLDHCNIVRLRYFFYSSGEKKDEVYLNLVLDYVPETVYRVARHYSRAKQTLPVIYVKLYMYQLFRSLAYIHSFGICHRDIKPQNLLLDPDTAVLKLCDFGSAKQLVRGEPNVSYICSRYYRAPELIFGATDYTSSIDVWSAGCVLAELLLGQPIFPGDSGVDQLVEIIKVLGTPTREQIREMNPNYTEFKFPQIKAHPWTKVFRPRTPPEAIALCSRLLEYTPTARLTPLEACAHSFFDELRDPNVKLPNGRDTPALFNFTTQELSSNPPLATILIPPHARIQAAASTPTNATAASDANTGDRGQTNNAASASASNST

PDK1 = PDK1 (Homo sapiens, UniProt Q15118); assay: Inhibition of recombinant human full-length His-tagged PDK1 expressed in baculovirus expression system at 25 uM using FRET-labeled Ser/Thr 07 peptide as substrate measured after 1 hr by Z'-lyte assay relative to control; conditions: probe FRET-labeled Ser/Thr 07 peptide
PDK1, sequence (Q15118 whole entry): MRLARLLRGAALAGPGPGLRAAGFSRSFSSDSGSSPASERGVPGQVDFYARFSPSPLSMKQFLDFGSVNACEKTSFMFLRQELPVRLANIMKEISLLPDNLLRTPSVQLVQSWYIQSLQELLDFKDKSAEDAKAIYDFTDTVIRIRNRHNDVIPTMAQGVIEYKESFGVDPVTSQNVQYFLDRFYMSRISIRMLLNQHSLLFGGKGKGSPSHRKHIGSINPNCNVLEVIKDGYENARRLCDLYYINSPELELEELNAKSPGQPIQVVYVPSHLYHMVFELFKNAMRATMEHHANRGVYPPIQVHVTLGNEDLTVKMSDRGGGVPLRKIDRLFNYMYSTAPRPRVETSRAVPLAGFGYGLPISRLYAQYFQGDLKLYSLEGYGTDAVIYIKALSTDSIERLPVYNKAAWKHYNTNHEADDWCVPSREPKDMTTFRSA

CHEK1 = target: T1, CHEK1 (Homo sapiens, UniProt O14757); assay: Inhibition of recombinant human full-length His-tagged CHEK1 expressed in baculovirus expression system at 25 uM using FRET-labeled Ser/Thr 19 peptide as substrate measured after 1 hr by Z'-lyte assay relative to control; conditions: probe FRET-labeled Ser/Thr 19 peptide
T1 sequence (O14757 whole entry): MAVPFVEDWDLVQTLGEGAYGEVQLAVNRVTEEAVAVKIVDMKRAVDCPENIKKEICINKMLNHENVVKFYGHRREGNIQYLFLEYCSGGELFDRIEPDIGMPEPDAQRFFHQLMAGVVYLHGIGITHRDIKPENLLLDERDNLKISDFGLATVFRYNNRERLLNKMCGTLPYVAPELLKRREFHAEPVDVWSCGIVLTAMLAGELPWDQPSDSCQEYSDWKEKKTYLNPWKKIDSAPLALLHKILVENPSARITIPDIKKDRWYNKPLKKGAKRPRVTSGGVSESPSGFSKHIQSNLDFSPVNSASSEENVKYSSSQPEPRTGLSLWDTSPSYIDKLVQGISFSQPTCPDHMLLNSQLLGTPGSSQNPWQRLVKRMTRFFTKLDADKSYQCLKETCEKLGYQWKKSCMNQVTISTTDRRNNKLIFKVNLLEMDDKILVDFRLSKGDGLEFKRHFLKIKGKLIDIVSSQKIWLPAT

EGFR = EGFR (Homo sapiens, UniProt P00533); assay: Inhibition of recombinant human GST-tagged EGFR cytoplasmic domain (668 to 1210 residues) expressed in baculovirus expression system at 25 uM using FRET-labeled tyr 04 peptide as substrate measured after 1 hr by Z'-lyte assay relative to control; conditions: probe FRET-labeled tyr 04 peptide
Escherichia coli = assay: Antibacterial activity against Escherichia coli DM4100 harboring deltatolC mutant measured after 18 to 20 hrs in presence of permeabilizing agent PMBN by broth microdilution method; format: functional
CHEK2 = CHEK2 (Homo sapiens, UniProt O96017); assay: Inhibition of recombinant human full-length His-tagged CHEK2 expressed in baculovirus expression system at 25 uM using FRET-labeled Ser/Thr 07 peptide as substrate measured after 1 hr by Z'-lyte assay relative to control; conditions: probe FRET-labeled Ser/Thr 07 peptide
CHEK2, sequence (O96017 whole entry): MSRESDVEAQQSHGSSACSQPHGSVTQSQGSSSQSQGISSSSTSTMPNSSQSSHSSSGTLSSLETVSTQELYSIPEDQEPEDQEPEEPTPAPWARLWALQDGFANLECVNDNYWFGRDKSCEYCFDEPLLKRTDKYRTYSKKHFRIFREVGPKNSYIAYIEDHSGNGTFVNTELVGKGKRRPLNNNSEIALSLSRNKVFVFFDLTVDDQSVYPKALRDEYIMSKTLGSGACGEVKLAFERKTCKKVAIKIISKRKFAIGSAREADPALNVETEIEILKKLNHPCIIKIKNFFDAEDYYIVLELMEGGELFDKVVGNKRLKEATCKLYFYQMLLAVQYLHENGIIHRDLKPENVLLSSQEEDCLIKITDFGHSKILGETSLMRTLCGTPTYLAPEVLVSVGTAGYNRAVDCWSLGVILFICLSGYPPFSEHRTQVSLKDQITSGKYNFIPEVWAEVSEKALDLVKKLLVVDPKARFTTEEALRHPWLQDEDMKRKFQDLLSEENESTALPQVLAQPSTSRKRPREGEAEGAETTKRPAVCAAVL

AKT1 = AKT1 (Homo sapiens, UniProt P31749); assay: Inhibition of recombinant human full-length His-tagged AKT1 expressed in baculovirus expression system at 25 uM using FRET-labeled Ser/Thr 05 peptide as substrate measured after 1 hr by Z'-lyte assay relative to control; conditions: probe FRET-labeled Ser/Thr 05 peptide
AKT1, sequence (P31749 whole entry): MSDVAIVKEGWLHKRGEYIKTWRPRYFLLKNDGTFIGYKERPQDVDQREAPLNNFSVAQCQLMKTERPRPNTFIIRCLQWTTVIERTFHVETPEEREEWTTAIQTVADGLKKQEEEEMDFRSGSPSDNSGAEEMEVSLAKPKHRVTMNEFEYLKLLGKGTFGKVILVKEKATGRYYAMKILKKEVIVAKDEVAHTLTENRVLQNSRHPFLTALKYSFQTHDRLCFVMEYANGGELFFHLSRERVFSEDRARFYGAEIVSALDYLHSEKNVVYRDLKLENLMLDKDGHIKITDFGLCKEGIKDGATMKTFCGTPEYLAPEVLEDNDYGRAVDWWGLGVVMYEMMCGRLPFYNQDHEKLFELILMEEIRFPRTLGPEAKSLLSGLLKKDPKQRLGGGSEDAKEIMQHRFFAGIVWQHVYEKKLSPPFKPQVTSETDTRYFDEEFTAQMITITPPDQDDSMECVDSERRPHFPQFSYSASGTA

MAPKAPK2 = MAPKAPK2 (Homo sapiens, UniProt P49137); assay: Inhibition of recombinant human full-length His-tagged MAPKAPK2 expressed in Escherichia coli at 25 uM using FRET-labeled Ser/Thr 04 peptide as substrate measured after 1 hr by Z'-lyte assay relative to control; conditions: probe FRET-labeled Ser/Thr 04 peptide
CSNK1D = CSNK1D (Homo sapiens, UniProt P48730); assay: Inhibition of recombinant human full-length GST-tagged CSNK1D expressed in baculovirus expression system at 25 uM using FRET-labeled Ser/Thr 11 peptide as substrate measured after 1 hr by Z'-lyte assay relative to control; conditions: probe FRET-labeled Ser/Thr 11 peptide
MAP4K4 = MAP4K4 (Homo sapiens, UniProt O95819); assay: Inhibition of recombinant human GST-tagged MAP4K4 catalytic domain (1 to 328 residues) expressed in baculovirus expression system at 25 uM using FRET-labeled Ser/Thr 07 peptide as substrate measured after 1 hr by Z'-lyte assay relative to control; conditions: probe FRET-labeled Ser/Thr 07 peptide
MAP4K4, sequence (O95819 whole entry, the tested form may be a part): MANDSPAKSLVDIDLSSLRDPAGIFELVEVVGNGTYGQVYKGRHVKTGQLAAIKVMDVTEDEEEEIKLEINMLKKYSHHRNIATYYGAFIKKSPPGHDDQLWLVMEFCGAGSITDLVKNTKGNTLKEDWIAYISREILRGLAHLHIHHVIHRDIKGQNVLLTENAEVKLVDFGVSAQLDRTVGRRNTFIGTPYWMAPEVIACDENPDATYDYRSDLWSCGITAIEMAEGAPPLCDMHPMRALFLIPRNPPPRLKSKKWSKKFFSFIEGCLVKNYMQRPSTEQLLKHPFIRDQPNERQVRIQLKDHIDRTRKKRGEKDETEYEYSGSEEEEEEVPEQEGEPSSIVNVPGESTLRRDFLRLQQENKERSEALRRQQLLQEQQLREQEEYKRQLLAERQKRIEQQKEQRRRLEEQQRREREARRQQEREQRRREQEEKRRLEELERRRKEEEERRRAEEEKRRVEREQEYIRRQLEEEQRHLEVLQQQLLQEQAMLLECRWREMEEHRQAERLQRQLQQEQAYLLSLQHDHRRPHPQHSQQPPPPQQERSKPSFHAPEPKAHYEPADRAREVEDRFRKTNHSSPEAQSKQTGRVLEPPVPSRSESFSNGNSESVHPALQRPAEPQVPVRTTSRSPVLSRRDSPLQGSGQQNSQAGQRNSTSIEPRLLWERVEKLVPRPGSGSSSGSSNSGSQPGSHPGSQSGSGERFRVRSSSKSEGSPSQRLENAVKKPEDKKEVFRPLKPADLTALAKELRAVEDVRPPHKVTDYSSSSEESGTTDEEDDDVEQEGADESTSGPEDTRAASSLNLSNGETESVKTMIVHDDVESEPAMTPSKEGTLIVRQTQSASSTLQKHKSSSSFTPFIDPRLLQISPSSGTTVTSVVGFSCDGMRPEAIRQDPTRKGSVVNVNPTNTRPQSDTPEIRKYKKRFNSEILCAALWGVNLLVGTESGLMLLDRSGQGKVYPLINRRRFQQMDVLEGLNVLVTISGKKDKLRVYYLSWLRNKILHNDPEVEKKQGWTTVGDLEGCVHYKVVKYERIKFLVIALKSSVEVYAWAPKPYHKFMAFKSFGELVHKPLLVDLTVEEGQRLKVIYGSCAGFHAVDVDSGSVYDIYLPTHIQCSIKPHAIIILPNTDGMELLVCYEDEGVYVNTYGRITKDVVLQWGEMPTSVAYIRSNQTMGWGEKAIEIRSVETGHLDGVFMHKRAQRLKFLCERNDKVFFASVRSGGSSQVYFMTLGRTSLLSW

FGFR1 = FGFR1 (Homo sapiens, UniProt P11362); assay: Inhibition of recombinant human His-tagged FGFR1 cytoplasmic domain (308 to 731 residues) expressed in baculovirus expression system at 25 uM using FRET-labeled tyr 04 peptide as substrate measured after 1 hr by Z'-lyte assay relative to control; conditions: probe FRET-labeled tyr 04 peptide
FGFR1, sequence (P11362 whole entry, the tested form may be a part): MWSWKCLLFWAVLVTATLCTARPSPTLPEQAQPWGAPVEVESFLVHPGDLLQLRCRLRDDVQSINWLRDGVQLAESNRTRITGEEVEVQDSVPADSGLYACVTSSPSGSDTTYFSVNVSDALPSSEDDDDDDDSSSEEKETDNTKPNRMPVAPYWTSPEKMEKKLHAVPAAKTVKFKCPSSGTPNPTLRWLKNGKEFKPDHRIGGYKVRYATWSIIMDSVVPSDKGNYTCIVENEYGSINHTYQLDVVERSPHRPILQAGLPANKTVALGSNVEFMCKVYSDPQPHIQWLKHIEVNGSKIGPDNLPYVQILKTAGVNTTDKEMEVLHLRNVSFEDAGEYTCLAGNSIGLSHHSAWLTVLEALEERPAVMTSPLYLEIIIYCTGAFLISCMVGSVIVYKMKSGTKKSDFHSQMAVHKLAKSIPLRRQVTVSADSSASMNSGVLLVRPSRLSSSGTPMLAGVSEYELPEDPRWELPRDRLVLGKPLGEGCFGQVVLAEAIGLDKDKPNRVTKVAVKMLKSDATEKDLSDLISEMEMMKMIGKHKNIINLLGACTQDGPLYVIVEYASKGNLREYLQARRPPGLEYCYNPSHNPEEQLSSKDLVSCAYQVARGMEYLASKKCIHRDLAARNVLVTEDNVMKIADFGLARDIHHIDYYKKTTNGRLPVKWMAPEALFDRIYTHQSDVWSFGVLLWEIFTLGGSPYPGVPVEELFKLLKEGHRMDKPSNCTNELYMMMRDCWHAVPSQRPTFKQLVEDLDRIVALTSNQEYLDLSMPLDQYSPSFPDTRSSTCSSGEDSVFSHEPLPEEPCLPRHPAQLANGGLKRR

PRKCZ = target: T2, PRKCZ (Homo sapiens, UniProt Q05513); assay: Inhibition of recombinant human full-length untagged PRKCZ expressed in baculovirus expression system at 25 uM using FRET-labeled Ser/Thr 07 peptide as substrate measured after 1 hr by Z'-lyte assay relative to control; conditions: probe FRET-labeled Ser/Thr 07 peptide
T2 sequence (Q05513 whole entry): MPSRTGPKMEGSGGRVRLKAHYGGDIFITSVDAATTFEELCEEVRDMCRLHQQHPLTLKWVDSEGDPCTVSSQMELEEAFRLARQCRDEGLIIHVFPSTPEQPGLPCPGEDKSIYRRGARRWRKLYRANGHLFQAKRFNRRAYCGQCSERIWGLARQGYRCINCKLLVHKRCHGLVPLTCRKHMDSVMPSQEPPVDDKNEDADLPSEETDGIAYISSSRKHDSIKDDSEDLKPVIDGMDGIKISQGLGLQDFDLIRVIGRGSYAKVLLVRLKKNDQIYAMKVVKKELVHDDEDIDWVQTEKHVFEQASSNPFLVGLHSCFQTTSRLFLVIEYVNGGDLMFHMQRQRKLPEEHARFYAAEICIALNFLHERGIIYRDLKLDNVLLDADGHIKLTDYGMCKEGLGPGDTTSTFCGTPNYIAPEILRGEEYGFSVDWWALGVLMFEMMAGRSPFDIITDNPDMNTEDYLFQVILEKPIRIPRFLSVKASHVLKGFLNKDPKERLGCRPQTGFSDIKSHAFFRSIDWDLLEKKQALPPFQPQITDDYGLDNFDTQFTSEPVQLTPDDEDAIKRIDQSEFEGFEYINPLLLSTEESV

PAK4 = PAK4 (Homo sapiens, UniProt O96013); assay: Inhibition of recombinant human GST-tagged PAK4 catalytic domain (295 to 591 residues) expressed in baculovirus expression system at 25 uM using FRET-labeled Ser/Thr 20 peptide as substrate measured after 1 hr by Z'-lyte assay relative to control; conditions: probe FRET-labeled Ser/Thr 20 peptide

Compound `Nc1ncc2cc(-c3c(Br)cccc3Br)c(N)nc2n1` has an inhibition at 1 h, 25 µM (INSR) of 6%, an inhibition at 1 h, 25 µM (ABL1) of 97% and an inhibition at 1 h, 25 µM (GSK3B) of 6%. For the same compound, the inhibition at 1 h, 25 µM (PDK1) was 3%, the inhibition at 1 h, 25 µM (CHEK1) was -1% and the inhibition at 1 h, 25 µM (EGFR) was 58%. The MIC (Escherichia coli) was 0.12 µg/mL, the inhibition at 1 h, 25 µM (CHEK2) was 13% and the inhibition at 1 h, 25 µM (AKT1) was 4%. It also gave an inhibition at 1 h, 25 µM (MAPKAPK2) of 10%, an inhibition at 1 h, 25 µM (CSNK1D) of 16% and an inhibition at 1 h, 25 µM (MAP4K4) of 52%. It also gave an inhibition at 1 h, 25 µM (FGFR1) of 78%, an inhibition at 1 h, 25 µM (PRKCZ) of 0% and an inhibition at 1 h, 25 µM (PAK4) of 20%.

With `CC(C)COc1cccc(Cl)c1-c1cc2cnc(N)nc2nc1N1C[C@@H]2[C@@H](N)[C@@H]2C1` the inhibition at 1 h, 25 µM (INSR) was 3%, the inhibition at 1 h, 25 µM (ABL1) was 30% and the inhibition at 1 h, 25 µM (GSK3B) was 7%. The inhibition at 1 h, 25 µM (PDK1) was 0%, the inhibition at 1 h, 25 µM (CHEK1) was 42% and the inhibition at 1 h, 25 µM (EGFR) was 6%. It also gave an MIC (Escherichia coli) of 0.015 µg/mL, an inhibition at 1 h, 25 µM (CHEK2) of 67% and an inhibition at 1 h, 25 µM (AKT1) of 7%. It also gave an inhibition at 1 h, 25 µM (MAPKAPK2) of 21%, an inhibition at 1 h, 25 µM (CSNK1D) of 3% and an inhibition at 1 h, 25 µM (MAP4K4) of 24%. The inhibition at 1 h, 25 µM (FGFR1) was 60%, the inhibition at 1 h, 25 µM (PRKCZ) was -8% and the inhibition at 1 h, 25 µM (PAK4) was 23%.

Compound `Nc1ncc2cc(-c3c(Cl)cccc3-c3cccnc3)c(N3C[C@@H]4[C@@H](N)[C@@H]4C3)nc2n1` has an inhibition at 1 h, 25 µM (INSR) of 3%, an inhibition at 1 h, 25 µM (ABL1) of 38% and an inhibition at 1 h, 25 µM (GSK3B) of 4%. It also gave an inhibition at 1 h, 25 µM (PDK1) of 0%, an inhibition at 1 h, 25 µM (CHEK1) of 28% and an inhibition at 1 h, 25 µM (EGFR) of 65%. The MIC (Escherichia coli) was 0.008 µg/mL, the inhibition at 1 h, 25 µM (CHEK2) was 20% and the inhibition at 1 h, 25 µM (AKT1) was 6%. It also gave an inhibition at 1 h, 25 µM (MAPKAPK2) of 26%, an inhibition at 1 h, 25 µM (CSNK1D) of 3% and an inhibition at 1 h, 25 µM (MAP4K4) of 21%. For the same compound, the inhibition at 1 h, 25 µM (FGFR1) was 57%, the inhibition at 1 h, 25 µM (PRKCZ) was 5% and the inhibition at 1 h, 25 µM (PAK4) was 25%.
